For assay [1], the target named is T1, unphosphorylated VEGF-R2Δ50 (FLVK) (Homo sapiens, UniProt P35968, DEL940-989/E990V).
T1 construct: VEGF-R2Δ50 contains residues 806–939 and 990–1171; made in house; host or cells: baculovirus/insect cell system
The experiment in a line: VEGF-R2 coupled spectrophotometric assay, unphosphorylated VEGF-R2Δ50 (FLVK). Format: biochemical. The settings on record: unphosphorylated VEGF-R2Δ50; for inhibition at 0.05 µM: 50 nM compound, read-out: FLVK (% inh @ 50 nM). The procedure, abridged: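 Ki obtained by Morrison-equation fitting of activity at varied compound levels; reaction started with 5–40 nM enzyme. Non-autophosphorylated kinase construct (insect cell-expressed) with 3 mM ATP, 20 mM poly(E4Y1), 60 mM MgCl2 plus 2 mM MnCl2, pH 7.5 HEPES; NADH loss at 340 nm via PK/LDH coupling.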

Assay [2] deals with human umbilical vein endothelial cells (HUVEC). The experiment in a line: HUVEC+VEGF proliferation assay. Format: cell-based. The note with it: Homo sapiens, HUVEC; VEGF 6 ng/mL, 72 h, MTT. An outline of the steps: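 Exponentially growing passage 3–4 HUVEC were starved 24 h in F12K + 1% FBS, given compound (0.1% final DMSO) 1 h before 6 ng/mL final VEGF, then cultured 72 h. Proliferation was read as MTT dye reduction (4 h exposure), absorbance at 595 nm.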

The target of assay [3] is T2, PDGFRβ (Homo sapiens, UniProt P09619).
T2 construct: expressed in transfected cells; host or cells: porcine aorta endothelial (PAE)-PDGFRβ cells
Nature of the assay: PAE-PDGFRβ phosphorylation in PAE-PDGFRB cells assay. In kind it is cell-based. The settings on record: PAE cells overexpressing human PDGFRβ, PDGF-BB stimulated; read-out: PAE PDGFR autophos IC50 (nM) AVG. The procedure, abridged: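 Inhibition of PDGF-BB-induced (1 μg/mL, 8 min, with 2 mM vanadate) PDGFRβ autophosphorylation in porcine aortic endothelial cells expressing the human receptor. Cells were starved 16 h and pretreated with compound 1 h at 37 °C. Lysates were captured with anti-PDGFRβ and probed with HRP-PY20 at 450 nm; four-parameter IC50.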

Assay [4] deals with Huvec. Nature of the assay: bFGF Huvec proliferation. In kind it is cell-based, human. The settings on record: Homo sapiens, HUVEC.

In patent US7045528B2, “Benzofused heterozryl amide derivatives of thienopyridines useful as therapeutic agents, pharmaceutical compositions including the same, and methods for their use” (Agouron Pharmaceuticals, Inc., priority 2002, dated 2006) one finds inhibition, Ki and IC50 data, which are given here for 15 molecules.

Usually Ki stands for the dissociation constant of the complex between target and ligand, obtained from inhibition or displacement. The term IC50 denotes the point on the concentration scale where inhibition reaches its midpoint.

T1 sequence (P35968 with tags, fused parts or gaps DEL940-989/E990V limits assumed): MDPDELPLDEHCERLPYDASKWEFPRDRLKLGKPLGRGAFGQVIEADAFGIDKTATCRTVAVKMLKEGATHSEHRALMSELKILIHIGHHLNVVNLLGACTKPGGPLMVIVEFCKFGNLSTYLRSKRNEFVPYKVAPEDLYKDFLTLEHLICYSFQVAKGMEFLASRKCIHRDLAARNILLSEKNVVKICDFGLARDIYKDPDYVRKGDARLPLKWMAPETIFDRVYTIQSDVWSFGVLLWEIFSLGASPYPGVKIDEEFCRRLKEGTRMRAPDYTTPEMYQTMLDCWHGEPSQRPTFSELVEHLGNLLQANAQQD
T2 sequence (P09619 33-1106): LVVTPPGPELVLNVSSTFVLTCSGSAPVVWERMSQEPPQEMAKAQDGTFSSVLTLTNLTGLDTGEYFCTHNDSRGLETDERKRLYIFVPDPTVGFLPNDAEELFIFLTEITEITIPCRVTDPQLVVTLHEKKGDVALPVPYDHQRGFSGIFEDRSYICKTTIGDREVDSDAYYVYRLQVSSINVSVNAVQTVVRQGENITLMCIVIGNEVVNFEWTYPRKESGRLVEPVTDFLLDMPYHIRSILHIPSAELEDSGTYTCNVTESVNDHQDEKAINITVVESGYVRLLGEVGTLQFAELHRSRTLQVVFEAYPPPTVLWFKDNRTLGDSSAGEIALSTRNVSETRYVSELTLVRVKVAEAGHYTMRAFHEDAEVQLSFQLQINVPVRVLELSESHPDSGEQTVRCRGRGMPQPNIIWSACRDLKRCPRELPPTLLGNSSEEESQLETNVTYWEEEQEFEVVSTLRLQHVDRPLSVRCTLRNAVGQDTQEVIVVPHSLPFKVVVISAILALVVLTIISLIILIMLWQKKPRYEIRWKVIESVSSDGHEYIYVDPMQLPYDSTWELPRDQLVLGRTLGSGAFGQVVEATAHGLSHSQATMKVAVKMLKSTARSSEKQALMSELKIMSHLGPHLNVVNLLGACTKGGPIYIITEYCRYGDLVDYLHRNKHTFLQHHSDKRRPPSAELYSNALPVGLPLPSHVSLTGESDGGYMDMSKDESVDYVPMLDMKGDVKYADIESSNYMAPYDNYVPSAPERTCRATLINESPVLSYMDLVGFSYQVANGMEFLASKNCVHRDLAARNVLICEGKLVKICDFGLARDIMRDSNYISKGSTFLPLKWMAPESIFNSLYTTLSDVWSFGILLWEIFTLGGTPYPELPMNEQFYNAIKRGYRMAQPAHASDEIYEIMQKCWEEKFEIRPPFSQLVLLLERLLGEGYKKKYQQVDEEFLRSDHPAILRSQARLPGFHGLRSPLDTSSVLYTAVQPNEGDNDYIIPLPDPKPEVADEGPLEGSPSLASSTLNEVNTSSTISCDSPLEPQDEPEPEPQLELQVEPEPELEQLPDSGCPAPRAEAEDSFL

As to `COC[C@@H]1CCCN1C(=O)c1cc2nccc(Oc3ccc4c(C(=O)NC5CC5)c(C)sc4c3)c2s1` [Example 120, 6-[(2-{[(2S)-2-(Methoxymethyl)pyrrolidin-1-yl]carbonyl}thieno[3,2-b]pyridin-7-yl)oxy]-2-methylbenzo[b]thiophene-3-carboxylic acid cyclopropylamide], the inhibition at 0.05 µM in assay [1] is 93%. Further, in assay [1], the Ki stood at 0.6 nM. The values for the IC50 in assay [2], in assay [3] and in assay [4] were 0.491 nM, 405 nM and 489 nM, respectively.
In the case of `CO[C@@H]1CCN(C(=O)c2cc3nccc(Oc4ccc5c(C(=O)NCC6CC6)c(C)oc5c4)c3s2)C1` [Example 91, 6-[2-(q-Methoxy-pyrrolidine-1-carbonyl)-thieno[3,2-b]pyridin-7-yloxy]-2-methyl-benzofuran-3-carboxylic acid cyclopropylmethyl-amide], the inhibition at 0.05 µM in assay [1] worked out at 94%. In addition, affinity in assay [1] was put at a Ki of 0.356 nM. Also, the half-maximal inhibitory concentration (IC50) was 0.168 nM in assay [2], 16.5 nM in assay [3] and 250 nM in assay [4].
`Cc1sc2cc(Oc3ccnc4cc(C(=O)N5CC[C@@H](O)C5)sc34)ccc2c1C(=O)NC1CC1` [Example 121, 6[(2-{[(3R)-3-Hydroxypyrrolidin-1-yl]carbonyl}thieno[3,2-b]pyridin-7-yl)oxy]-2-methylbenzo[b]thiophene-3-carboxylic acid cyclopropylamide]: the inhibition at 0.05 µM in assay [1] was determined as 94%. This molecule came in with a Ki in assay [1] of 0.2 nM. The IC50 amounted to 0.24 nM in assay [2], 220 nM in assay [3] and 100 nM in assay [4].
For the molecule `COC[C@@H]1CCCN1C(=O)c1cc2nccc(Oc3ccc4c(C(=O)NC(C)C)c(C)oc4c3)c2s1` [Example 82, 6-(2-[(S)-2-(methoxymethyl)pyrrolidine-1-carbonyl]thieno[3,2-b]pyridin-7-yloxy)-2-methyl-benzofuran-3-carboxylic acid isopropylamide], the inhibition at 0.05 µM in assay [1] amounted to 89%. This molecule also gave a Ki in assay [1] of 0.884 nM. Moreover, the IC50 in assay [2] amounted to 2.28 nM; in assay [3] it was 53.1 nM; in assay [4] it was 2060 nM.
For `CNC(=O)c1c(C)n(C)c2cc(Oc3ccnc4cc(C(=O)N5CC(O)C5)sc34)ccc12` [Example 30, 6-[2-(3-Hydroxy-azetidine-1-carbonyl)-thieno[3,2-b]pyridin-7-yloxy]-1,2-dimethyl-1H-indole-3-carboxylic acid methylamide], the inhibition at 0.05 µM in assay [1] came out at 63%. Further, in assay [1], the Ki stood at 6 nM. The results for the IC50 in assay [2], in assay [3] and in assay [4] were 33.6 nM, 74 nM and 10000 nM, respectively.
For the molecule `Cc1c(C(=O)NCCCO)c2ccc(Oc3ccnc4cc(C(=O)N5CCCC5)sc34)cc2n1C` [Example 65, 1,2-Dimethyl-6-[2-(pyrrolidine-1-carbonyl)-thieno[3,2-b]pyridin-7-yloxy]-1H-indole-3-carboxylic acid (3-hydroxy-propyl)-amide], the inhibition at 0.05 µM in assay [1] was determined as 65%. In assay [1], this molecule came in with a Ki of 7.97 nM. Also, the IC50 in assay [2] worked out at 10 nM; in assay [3], 59 nM; in assay [4], 10000 nM.
Take `CNC(=O)c1c(C)n(C)c2cc(Oc3ccnc4cc(C(=O)N5CCCC5)sc34)ccc12` [Example 28, 1,2-Dimethyl-6-[2-(pyrrolidine-1-carbonyl)-thieno[3,2-b]pyridin-7-yloxy]-1H-indole-3-carboxylic acid methylamide]: in assay [1], the inhibition at 0.05 µM stood at 78%. In assay [1], this molecule showed an inhibition constant (Ki) of 2.8 nM. The IC50 in assay [2] was found to be 0.272 nM; in assay [3], 15 nM; in assay [4], 462 nM.
The matching figures for `CO[C@@H]1CCN(C(=O)c2cc3nccc(Oc4ccc5c(C(=O)NCC6CC6)c(C)sc5c4)c3s2)C1` [Example 125, 6-[(2-{[(3R)-3-Methoxypyrrolidin-1-yl]carbonyl}thieno[3,2-b]pyridin-7-yl)oxy]-2-methylbenzo[b]thiophene-3-carboxylic acid (cyclopropylmethyl)amide]: 95%, 0.219 nM, 2 nM, 179 nM and 969 nM.
In the case of `CO[C@@H]1CCN(C(=O)c2cc3nccc(Oc4ccc5c(C(=O)NCC(C)C)c(C)oc5c4)c3s2)C1` [Example 87, 6-[2-(3-Methoxy-pyrrolidine-1-carbonyl)-thieno[3,2-b]pyridin-7-yloxy]-2-methyl-benzofuran-3-carboxylic acid isobutyl amide], the inhibition at 0.05 µM in assay [1] turned out to be 96%. Further, the affinity in assay [1] corresponds to a Ki of 0.615 nM. Moreover, the IC50 in assay [2] came to 1.25 nM; in assay [3], 17.8 nM; in assay [4] it was 6040 nM.
For the molecule `Cc1oc2cc(Oc3ccnc4ccsc34)ccc2c1C(=O)NCCc1c[nH]c2cc(F)ccc12` [Example 104, 2-Methyl-6-(thieno[3,2-b]pyridin-7-yloxy)-benzofuran-3-carboxylic acid [2-(6-fluoro-1H-indol-3-yl)ethyl]-amide], the inhibition at 0.05 µM in assay [1] is 100%. Also, the IC50 in assay [2] came out at 8.4 nM; in assay [3] it was 164 nM; in assay [4], 227 nM.
Regarding `Cc1sc2cc(Oc3ccnc4cc(-c5nccn5C)sc34)ccc2c1C(=O)NC1CC1` [Example 117, 2-Methyl-6-{[2-(1-methyl-1H-imidazol-2-yl)thieno[3,2-b]pyridin-7-yl]oxy}benzo[b]thiophene-3-carboxylic acid cyclopropylamide], in assay [1], the inhibition at 0.05 µM came out at 87%. The molecule also yielded a Ki in assay [1] of 0.2 nM. Moreover, the IC50 in assay [2] is 0.07 nM; in assay [3], 189 nM; in assay [4], 86 nM.
As for `Cc1sc2cc(Oc3ccnc4cc(C(=O)N5CCC5)sc34)ccc2c1C(=O)NC1CC1` [Example 127, 6-{[2-(Azetidin-1-ylcarbonyl)thieno[3,2-b]pyridin-7-yl]oxy}2-methylbenzo[b]thiophene-3-carboxylic acid cyclopropylamide], the inhibition at 0.05 µM in assay [1] came to 100%. The Ki in assay [1] was 0.2 nM. Also, the IC50 in assay [2] is 1 nM; in assay [3], 102 nM; in assay [4], 41 nM.
In the case of `Cc1sc2cc(Oc3ccnc4cc(-c5nc(CO)cs5)sc34)ccc2c1C(=O)NC1CC1` [Example 129], the inhibition at 0.05 µM in assay [1] stood at 88%. Also, in assay [1], the inhibition constant (Ki) worked out at 0.2 nM. Also, the IC50 in assay [2] worked out at 0.219 nM; in assay [3], 168 nM; in assay [4] it was 100 nM.
With `CNC(=O)c1c(C)n(C)c2cc(Oc3ccnc4cc(-c5ccncc5)sc34)ccc12` [Example 38, 1,2-Dimethyl-6-(2-pyridin-4-yl-thieno[3,2-b]pyridin-7-yloxy)-1H-indole-3-carboxylic acid methylamide], the inhibition at 0.05 µM in assay [1] is 60%. In assay [1], this molecule returned a Ki of 6.12 nM. The IC50 is 27 nM in assay [2], 12.3 nM in assay [3] and 10000 nM in assay [4].
For `CNC(=O)c1c(C)n(C)c2cc(Oc3ccnc4cc(C(=O)N5CCC5)sc34)ccc12` [Example 25], the inhibition at 0.05 µM in assay [1] was determined as 70%. Further, the affinity in assay [1] corresponds to a Ki of 4.08 nM. Further, the values for the IC50 in assay [2], in assay [3] and in assay [4] were 0.45 nM, 12 nM and 7460 nM, respectively.
